Where two headings read alike, the source gives them in different places.
Columns and labels:
Type in all cases: binding
HLA-B*07:02 = HLA-B*07:02 (Homo sapiens, UniProt P01889); details: percent relative the binding of positive control peptide […]; duplicated experiments; positive binder >40%
HLA-B*58:01 [1] = target: T1, HLA-B*58:01 (Homo sapiens, UniProt P01889, A329T/C349S/D201E/D98Y/E176V/E187L/E204Q/E69T/G107R/I218V/I90N/K202T/L105A/L119I/N104I/N87E/Q89R/Q94S/R106L/R155S/R180L/R86G/S101N/S121R/S35A/S48A/T118I/V127L/V306I/V36M/Y140S/Y91M); details: duplicated experiments, positive binder >40%
HLA-A*02:01 = HLA-A*02:01 (Homo sapiens, UniProt P04439, D140Y/D185E/D98H/E176V/E277Q/G131W/G231S/I119V/I121R/I166T/I218V/L300P/L318F/N151K/N90K/P208A/P217A/Q86G/Q94H/R138H/R169H/T345S); details: plate-bound monomer 0.5 µg/ml, duplicated experiments, positive binder >40%
HLA-B*58:01 [2] = target: T1, HLA-B*58:01
HLA-A*68:01 = HLA-A*68:01 (Homo sapiens, UniProt P04439, A269V/D185E/E176V/E277Q/E87N/F33Y/G231S/I121M/I166T/I218V/L180W/L300P/L318F/N151K/P208A/P217A/Q86R/R169H/T345S); details: duplicated experiments, positive binder >40%
HLA-C*07:01 = HLA-C*07:01 (Homo sapiens, UniProt P10321, K90N/S123Y); details: duplicated experiments, positive binder >40%
HLA-A*24:02 = HLA-A*24:02 (Homo sapiens, UniProt P04439, D101N/D140Y/D185E/E176V/E190D/F33S/G103R/G107R/I119L/I121M/I306V/K335N/L105A/L180Q/L300P/N151K/N90K/Q86E/Q94H/R106L/R138H/R89G/T104I/T345S/V100E/W191G/Y123F); details: duplicated experiments, positive binder >40%
HLA-A*30:02 [3] = target: T2, HLA-A*30:02 (Homo sapiens, UniProt P04439, D101N/D140H/D185E/E176R/F33S/G80R/H175R/K168Q/Q94H/R138E/R41S/V100E); details: duplicated experiments, positive binder >40%
HLA-A*30:01 = HLA-A*30:01 (Homo sapiens, UniProt P04439, D140H/D185E/E176W/F33S/G80R/H175R/K168Q/R138E/R41S); details: duplicated experiments, positive binder >40%
HLA-B*58:01 [4] = target: T1, HLA-B*58:01; details: time points 0-8 h
HLA-A*30:02 [5] = target: T2, HLA-A*30:02; details: time points 0-8 h
HLA-A*30:02 [6] = target: T2, HLA-A*30:02
[7] = percent relative the binding of positive control peptide IAMESIVIW
[8] = percent relative the binding of positive control peptide FLPSDFFPSV
[9] = peptide titrated 10−4 to 10−9 M
[10] = percent relative the binding of positive control peptide KTGGPIYKR
[11] = percent relative the binding of positive control peptide KYFDEHYEY
[12] = percent relative the binding of positive control peptide RYLKDQQLL
[13] = percent relative the binding of positive control peptide KIQNFRVYY
[14] = percent relative the binding of positive control peptide KTKDIVNGL
[15] = percent relative the binding of positive control peptide […]

Row | Sequence | Bind B*07:02 (HLA-B*07:02) | O-rate B*58:01 (t1/2) (HLA-B*58:01 [4]) | Bind B*58:01 (HLA-B*58:01 [1]; [15]) | Aff B*58:01 (ED50) (HLA-B*58:01 [2]) | Bind A*68:01 (HLA-A*68:01; [15]) | Bind C*07:01 (HLA-C*07:01; [15]) | Bind A*30:02 (HLA-A*30:02 [3]; [15]) | also measured
1 | SLTKLAAAW [Rv3875_35–43] | 5% | 54 min |  |  |  |  |  | Bind B*58:01 (HLA-B*58:01 [1]; [7]): 48%; Bind A*02:01 (HLA-A*02:01; [8]): 47%; Aff B*58:01 (ED50) (HLA-B*58:01 [2]; [9]): 0.4 µM; Bind A*68:01 (HLA-A*68:01; [10]): 10%; Bind C*07:01 (HLA-C*07:01; [11]): 8%; Bind A*24:02 (HLA-A*24:02; [12]): 12%; Bind A*30:02 (HLA-A*30:02 [3]; [13]): 50%; Bind A*30:01 (HLA-A*30:01; [14]): 6%
2 | GITYQAWQA [Rv0288_48–56] |  | 12 min | 46% | 0.09 µM | 0% | 0% |  | 
3 | MSQIMYNYP [Rv0288_1–9] |  | 66 min | 57% | 4 µM | 29% | 10% |  | 
4 | TYQAWQAQW [Rv0288_50–58] |  | 60 min | 119% | 0.1 µM | 0% | 0% |  | 
5 | YQAWQAQWN [Rv0288_51–59] |  | 120 min | 52% | 2 µM | 23% | 0% |  | 
6 | QAALQSAWQ [Rv0288_36–44] |  | 30 min | 62% | 50 µM | 17% | 7% |  | 
7 | AAGGHNAVF | 9% | 42 min | 101% | 0.2 µM | 0% | 39% | 67% | Bind A*02:01 (HLA-A*02:01; [15]): 31%; Bind A*24:02 (HLA-A*24:02; [15]): 34%; Bind A*30:01 (HLA-A*30:01; [15]): 15%
8 | SSTHEANTM [Rv0288_73–81] |  | 48 min | 41% | 2 µM | 0% | 7% |  | 
9 | TGITYQAWQ [Rv0288_47–55] |  | 48 min | 40% | 4 µM | 8% | 0% |  | 
10 | LTKLAAAWG [Rv3875_36-44] | 6% | 72 min |  |  |  |  |  | Bind B*58:01 (HLA-B*58:01 [1]; [7]): 47%; Bind A*02:01 (HLA-A*02:01; [8]): 15%; Aff B*58:01 (ED50) (HLA-B*58:01 [2]; [9]): 0.7 µM; Bind A*68:01 (HLA-A*68:01; [10]): 21%; Bind C*07:01 (HLA-C*07:01; [11]): 13%; Bind A*24:02 (HLA-A*24:02; [12]): 0%; Bind A*30:02 (HLA-A*30:02 [3]; [13]): 0%; Bind A*30:01 (HLA-A*30:01; [14]): 13%
11 | AGCQTYKW E | 2% | 120 min | 121% | 0.2 µM | 4% | 0% | 18% | Bind A*02:01 (HLA-A*02:01; [15]): 12%; Bind A*24:02 (HLA-A*24:02; [15]): 31%; Bind A*30:01 (HLA-A*30:01; [15]): 3%
12 | RAQDDYNGW | 0% |  | 41% |  | 2% | 2% | 119% | O-rate A*30:02 (t1/2) (HLA-A*30:02 [5]): 72 min; Bind A*02:01 (HLA-A*02:01; [15]): 0%; Bind A*24:02 (HLA-A*24:02; [15]): 65%; Aff A*30:02 (ED50) (HLA-A*30:02 [6]): 0.5 µM; Bind A*30:01 (HLA-A*30:01; [15]): 11%
13 | DTGITYQAW [Rv0288_46–54] |  | 138 min | 41% | 1 µM | 7% | 0% |  | 
14 | GQSSFYSDW | 0% |  | 62% |  | 0% | 0% | 71% | O-rate A*30:02 (t1/2) (HLA-A*30:02 [5]): 198 min; Bind A*02:01 (HLA-A*02:01; [15]): 27%; Bind A*24:02 (HLA-A*24:02; [15]): 76%; Aff A*30:02 (ED50) (HLA-A*30:02 [6]): 0.02 µM; Bind A*30:01 (HLA-A*30:01; [15]): 0%
15 | RAYHSMSST [Rv0288_67–75m1] | 14% | 24 min | 32% | 0.02 µM |  | 0% | 7% | 
16 | QQKWDATAT [Rv3875_55–63] | 9% |  |  |  |  |  |  | Bind B*58:01 (HLA-B*58:01 [1]; [7]): 8%; O-rate A*30:02 (t1/2) (HLA-A*30:02 [5]): 102 min; Bind A*02:01 (HLA-A*02:01; [8]): 0%; Bind A*68:01 (HLA-A*68:01; [10]): 9%; Bind C*07:01 (HLA-C*07:01; [11]): 4%; Bind A*24:02 (HLA-A*24:02; [12]): 0%; Aff A*30:02 (ED50) (HLA-A*30:02 [6]; [9]): 0.09 µM; Bind A*30:02 (HLA-A*30:02 [3]; [13]): 60%; Bind A*30:01 (HLA-A*30:01; [14]): 29%
17 | SAWQGDTGI [Rv0288_41–49] |  | 36 min | 46% | 0.03 µM | 30% | 12% |  | 
18 | NLKFQDAYN | 0% |  | 0% |  | 9% | 7% | 123% | O-rate A*30:02 (t1/2) (HLA-A*30:02 [5]): 24 min; Bind A*02:01 (HLA-A*02:01; [15]): 8%; Bind A*24:02 (HLA-A*24:02; [15]): 0%; Aff A*30:02 (ED50) (HLA-A*30:02 [6]): 10 µM; Bind A*30:01 (HLA-A*30:01; [15]): 0%

Reference: PMC3608651, “A Broad Profile of Co-Dominant Epitopes Shapes the Peripheral Mycobacterium tuberculosis Specific CD8+ T-Cell Immune Response in South African Patients with Active Tuberculosis” (PLoS ONE, 2013)
